Each block holds one molecule with its values, some of them ahead of it. The source made the active and inactive calls.
Key:
[1] = Counterscreen for AddAB inhibitors: absorbance-based bacterial cell-based high throughput dose response assay for inhibitors of bacterial viability. [Related pubchem assays (depositor defined):AID435030, AID449728, AID449731, AID488942, AID488955, AID488956]; format: functional
A-375 = test: MITF: Counter assay: A375 proliferation Measured in Cell-Based System Using Plate Reader - 2084-03_Inhibitor_Dose_DryPowder_Activity. [Related pubchem assays (depositor defined):AID488944]; format: functional; conditions: Homo sapiens
BJ = test: cytotoxicity toward BJ-TERT-LT-ST fibroblasts, dose response, cell-based, RAS-independent, luminescence (AID 1935); format: functional; conditions: Homo sapiens;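 note: BJ fibroblasts immortalized with TERT plus LT and ST oncogenes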
[2] = target: Mast/stem cell growth factor receptor Kit (Homo sapiens, UniProt P10721); format: functional;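 note: KIT entry within a kinase panel assay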
[3] = target: Homeodomain-interacting protein kinase 2 (Homo sapiens, UniProt Q9H2X6); format: functional;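 note: measured within a kinome-wide kinase profiling panel, HIPK2 being one panel member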
[4] = target: Maternal embryonic leucine zipper kinase (Homo sapiens, UniProt Q14680); format: functional
[5] = target: Cyclin-dependent kinase 9 (Homo sapiens, UniProt P50750); format: functional;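 note: value from the CDK9 entry of a kinome-spanning kinase panel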
Caspase-3 = target: T1, Caspase-3 (Homo sapiens, UniProt P42574); format: functional;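 note: Dose-response selectivity test against caspase-3 for candidate inhibitors of sentrin-specific proteases (SENPs)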
T1 sequence (P42574 whole entry): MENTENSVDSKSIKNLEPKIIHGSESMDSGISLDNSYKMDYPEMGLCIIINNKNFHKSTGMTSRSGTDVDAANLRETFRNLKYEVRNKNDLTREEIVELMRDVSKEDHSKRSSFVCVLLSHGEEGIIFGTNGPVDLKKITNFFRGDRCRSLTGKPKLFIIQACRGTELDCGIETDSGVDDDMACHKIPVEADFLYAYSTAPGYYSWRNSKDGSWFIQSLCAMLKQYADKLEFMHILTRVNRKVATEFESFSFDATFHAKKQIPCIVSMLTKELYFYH

[6] = target: T2, Histone-lysine N-methyltransferase NSD2 (Homo sapiens, UniProt O96028); format: biochemical
T2 sequence (O96028 whole entry): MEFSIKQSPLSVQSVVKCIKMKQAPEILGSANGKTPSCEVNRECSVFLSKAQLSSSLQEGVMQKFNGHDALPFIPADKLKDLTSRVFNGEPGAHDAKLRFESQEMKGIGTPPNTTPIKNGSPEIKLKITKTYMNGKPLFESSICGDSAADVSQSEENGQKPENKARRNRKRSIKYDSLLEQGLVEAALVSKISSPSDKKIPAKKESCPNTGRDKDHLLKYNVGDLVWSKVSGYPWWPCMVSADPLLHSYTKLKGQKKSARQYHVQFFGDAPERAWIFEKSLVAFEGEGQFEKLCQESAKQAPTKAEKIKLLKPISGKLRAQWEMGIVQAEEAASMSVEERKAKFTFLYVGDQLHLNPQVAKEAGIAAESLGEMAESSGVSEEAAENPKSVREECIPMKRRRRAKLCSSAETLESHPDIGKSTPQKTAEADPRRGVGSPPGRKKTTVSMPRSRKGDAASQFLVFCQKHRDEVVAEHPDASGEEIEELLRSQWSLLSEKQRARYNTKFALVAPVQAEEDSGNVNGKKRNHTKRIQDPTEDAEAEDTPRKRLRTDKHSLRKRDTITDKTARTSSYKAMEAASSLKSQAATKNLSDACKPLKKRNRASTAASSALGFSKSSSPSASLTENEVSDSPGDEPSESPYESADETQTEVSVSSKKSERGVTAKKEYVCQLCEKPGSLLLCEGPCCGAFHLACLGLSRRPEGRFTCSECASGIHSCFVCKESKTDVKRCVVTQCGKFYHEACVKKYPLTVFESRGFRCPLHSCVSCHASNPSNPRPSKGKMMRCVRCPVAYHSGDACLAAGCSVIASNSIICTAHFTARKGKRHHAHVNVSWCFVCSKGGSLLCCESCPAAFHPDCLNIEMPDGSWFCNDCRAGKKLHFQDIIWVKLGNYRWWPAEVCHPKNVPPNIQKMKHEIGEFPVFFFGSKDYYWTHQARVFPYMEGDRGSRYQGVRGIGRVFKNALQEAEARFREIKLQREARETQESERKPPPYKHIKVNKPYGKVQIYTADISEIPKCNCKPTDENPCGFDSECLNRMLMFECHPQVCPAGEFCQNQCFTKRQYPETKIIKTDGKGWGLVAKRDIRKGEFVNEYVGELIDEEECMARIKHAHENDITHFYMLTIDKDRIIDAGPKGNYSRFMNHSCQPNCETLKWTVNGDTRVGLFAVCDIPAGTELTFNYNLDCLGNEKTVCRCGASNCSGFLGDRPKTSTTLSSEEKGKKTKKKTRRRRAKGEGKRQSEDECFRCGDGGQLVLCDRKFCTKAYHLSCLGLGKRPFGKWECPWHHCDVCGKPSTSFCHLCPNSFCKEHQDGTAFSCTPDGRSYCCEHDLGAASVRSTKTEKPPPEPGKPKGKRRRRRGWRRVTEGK

[7] = target: T3, Mannose-6-phosphate isomerase (Homo sapiens, UniProt P34949); test: human PMI inhibitors, high substrate, primary screen, biochemical, fluorescence intensity, high mannose 6-phosphate (AID 1220)
T3 sequence (P34949 whole entry): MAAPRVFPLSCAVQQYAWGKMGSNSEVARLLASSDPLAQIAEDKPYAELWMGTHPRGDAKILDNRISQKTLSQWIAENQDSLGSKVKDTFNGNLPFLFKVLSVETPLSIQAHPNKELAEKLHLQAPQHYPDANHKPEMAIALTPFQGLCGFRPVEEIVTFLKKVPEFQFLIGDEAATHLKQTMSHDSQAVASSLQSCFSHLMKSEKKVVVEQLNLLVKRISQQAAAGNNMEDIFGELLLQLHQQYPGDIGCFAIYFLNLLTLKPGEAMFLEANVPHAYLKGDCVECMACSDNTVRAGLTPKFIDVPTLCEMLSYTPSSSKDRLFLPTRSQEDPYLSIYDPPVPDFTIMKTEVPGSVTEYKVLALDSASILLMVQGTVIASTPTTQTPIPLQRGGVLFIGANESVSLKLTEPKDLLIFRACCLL

Homeodomain-interacting protein kinase 2, sequence (Q9H2X6 whole entry): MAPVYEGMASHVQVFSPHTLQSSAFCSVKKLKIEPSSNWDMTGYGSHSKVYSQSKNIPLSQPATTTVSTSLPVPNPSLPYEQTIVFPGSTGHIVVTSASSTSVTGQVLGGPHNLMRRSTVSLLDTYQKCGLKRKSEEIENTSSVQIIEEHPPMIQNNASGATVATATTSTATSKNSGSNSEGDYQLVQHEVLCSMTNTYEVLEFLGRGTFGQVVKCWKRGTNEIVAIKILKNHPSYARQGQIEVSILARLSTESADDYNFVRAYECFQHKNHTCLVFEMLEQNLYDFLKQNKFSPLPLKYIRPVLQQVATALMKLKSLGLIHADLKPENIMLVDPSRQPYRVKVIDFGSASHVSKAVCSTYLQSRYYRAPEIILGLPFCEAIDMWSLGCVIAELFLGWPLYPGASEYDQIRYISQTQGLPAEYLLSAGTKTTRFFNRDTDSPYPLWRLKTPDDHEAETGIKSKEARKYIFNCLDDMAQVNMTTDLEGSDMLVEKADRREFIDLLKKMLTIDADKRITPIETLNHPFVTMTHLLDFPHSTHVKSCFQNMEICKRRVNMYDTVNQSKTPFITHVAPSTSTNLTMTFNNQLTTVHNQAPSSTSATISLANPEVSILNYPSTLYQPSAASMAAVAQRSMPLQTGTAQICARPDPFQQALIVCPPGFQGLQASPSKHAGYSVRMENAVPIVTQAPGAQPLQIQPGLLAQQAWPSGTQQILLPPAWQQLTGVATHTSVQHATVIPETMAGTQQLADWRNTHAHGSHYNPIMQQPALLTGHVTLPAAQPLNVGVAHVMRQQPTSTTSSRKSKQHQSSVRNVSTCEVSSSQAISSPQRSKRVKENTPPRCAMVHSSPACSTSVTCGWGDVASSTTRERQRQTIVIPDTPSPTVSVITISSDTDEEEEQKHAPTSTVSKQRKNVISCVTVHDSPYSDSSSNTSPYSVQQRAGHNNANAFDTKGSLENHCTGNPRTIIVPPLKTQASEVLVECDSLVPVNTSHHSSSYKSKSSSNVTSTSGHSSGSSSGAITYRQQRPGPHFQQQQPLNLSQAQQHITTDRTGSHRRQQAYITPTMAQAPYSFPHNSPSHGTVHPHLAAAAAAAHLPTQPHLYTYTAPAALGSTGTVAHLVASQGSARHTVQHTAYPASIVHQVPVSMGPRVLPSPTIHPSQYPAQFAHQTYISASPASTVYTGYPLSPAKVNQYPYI
Maternal embryonic leucine zipper kinase, sequence (Q14680 whole entry): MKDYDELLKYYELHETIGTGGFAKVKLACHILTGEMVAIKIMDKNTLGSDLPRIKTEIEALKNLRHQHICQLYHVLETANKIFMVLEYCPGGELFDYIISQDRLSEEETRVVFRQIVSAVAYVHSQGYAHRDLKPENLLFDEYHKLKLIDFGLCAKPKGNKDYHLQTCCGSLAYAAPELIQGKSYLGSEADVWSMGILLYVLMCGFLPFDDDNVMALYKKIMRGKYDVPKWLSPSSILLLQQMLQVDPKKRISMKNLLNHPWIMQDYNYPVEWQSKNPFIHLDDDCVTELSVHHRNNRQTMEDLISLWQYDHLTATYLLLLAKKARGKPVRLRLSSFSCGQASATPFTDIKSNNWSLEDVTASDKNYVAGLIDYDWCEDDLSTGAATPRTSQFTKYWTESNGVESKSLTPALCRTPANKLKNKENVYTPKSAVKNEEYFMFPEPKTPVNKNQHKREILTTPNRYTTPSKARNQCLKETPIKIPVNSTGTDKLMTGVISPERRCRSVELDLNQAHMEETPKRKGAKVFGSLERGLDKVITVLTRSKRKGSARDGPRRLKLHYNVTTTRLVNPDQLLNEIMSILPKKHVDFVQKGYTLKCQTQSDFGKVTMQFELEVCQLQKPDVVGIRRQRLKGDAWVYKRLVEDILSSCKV
Mast/stem cell growth factor receptor Kit, sequence (P10721 whole entry): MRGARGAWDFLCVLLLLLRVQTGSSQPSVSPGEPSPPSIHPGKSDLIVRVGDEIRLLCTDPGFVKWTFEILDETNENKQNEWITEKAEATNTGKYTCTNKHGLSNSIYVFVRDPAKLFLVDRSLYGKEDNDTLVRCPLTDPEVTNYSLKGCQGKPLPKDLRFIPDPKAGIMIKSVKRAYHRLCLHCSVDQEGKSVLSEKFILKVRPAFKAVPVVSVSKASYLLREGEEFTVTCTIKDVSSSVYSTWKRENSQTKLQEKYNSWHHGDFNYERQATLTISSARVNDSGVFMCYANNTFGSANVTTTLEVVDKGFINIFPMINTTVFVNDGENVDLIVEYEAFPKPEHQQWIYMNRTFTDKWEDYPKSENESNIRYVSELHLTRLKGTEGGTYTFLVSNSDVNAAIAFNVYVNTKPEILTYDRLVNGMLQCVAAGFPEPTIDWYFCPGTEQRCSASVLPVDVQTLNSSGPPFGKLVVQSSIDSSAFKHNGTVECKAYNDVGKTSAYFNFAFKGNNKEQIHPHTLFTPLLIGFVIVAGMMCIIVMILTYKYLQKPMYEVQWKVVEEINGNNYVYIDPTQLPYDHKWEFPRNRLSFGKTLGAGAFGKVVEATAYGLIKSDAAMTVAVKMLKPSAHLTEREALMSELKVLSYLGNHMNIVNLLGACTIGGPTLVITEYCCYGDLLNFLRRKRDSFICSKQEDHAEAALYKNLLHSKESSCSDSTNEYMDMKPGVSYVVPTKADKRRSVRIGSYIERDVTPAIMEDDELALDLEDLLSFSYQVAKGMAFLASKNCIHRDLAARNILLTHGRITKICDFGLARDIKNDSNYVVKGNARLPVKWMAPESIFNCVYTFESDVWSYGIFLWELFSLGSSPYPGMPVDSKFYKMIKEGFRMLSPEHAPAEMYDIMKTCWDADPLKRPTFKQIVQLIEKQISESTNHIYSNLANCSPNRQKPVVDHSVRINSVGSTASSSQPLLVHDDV
Cyclin-dependent kinase 9, sequence (P50750 whole entry): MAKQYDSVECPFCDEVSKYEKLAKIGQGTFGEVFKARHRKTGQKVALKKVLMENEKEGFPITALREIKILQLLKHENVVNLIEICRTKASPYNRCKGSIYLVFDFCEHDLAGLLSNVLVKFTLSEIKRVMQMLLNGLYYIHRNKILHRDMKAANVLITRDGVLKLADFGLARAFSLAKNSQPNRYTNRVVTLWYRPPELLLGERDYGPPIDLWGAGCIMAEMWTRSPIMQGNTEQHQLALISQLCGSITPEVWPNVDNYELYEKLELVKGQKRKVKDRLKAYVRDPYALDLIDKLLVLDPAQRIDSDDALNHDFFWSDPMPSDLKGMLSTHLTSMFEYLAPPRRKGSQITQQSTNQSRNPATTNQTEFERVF

SMILES: CC(C)CC(=O)NC(c1cccs1)c1ccc2cccnc2c1O (configuration not stated)
IC50 [1]: > 119 µM (inactive)

SMILES: CCOC(=O)c1ccc(NC2=CC(=O)C(=O)c3ccccc32)cc1
AC50 (A-375): 6.65 µM (active)

SMILES: OC(CNCCC1C=Nc2ccccc21)Cn1c2ccc(Cl)cc2c2cc(Cl)ccc21 (configuration not stated)
EC50 (BJ): 5.42 µM (inconclusive)

Ki [2]: > 3.98 µM (inactive)
Ki [3]: 39.8 nM (active)
pKi [3]: 7.4
Ki [4]: 3.16 nM (active)
pKi [4]: 8.5
SMILES: NC1CCC(Nc2nc(Cl)cc(-c3c[nH]c4ncccc34)n2)CC1 (configuration not stated)

Ki [5]: > 1.58 µM (inactive)
SMILES: O=C(O)C1CN(Cc2ccc(OCc3ccccc3)cc2Cl)C1

IC50 (Caspase-3): 8.21 µM (active)
AC50 [6]: 6.77 µM (active)
SMILES: COc1ccc(C(=O)c2nccc3cc(OC)c(OC)cc23)cc1OC

SMILES: Cc1ccccc1-c1cc2c(nn1)-c1ccccc1C2=O
IC50 [7]: > 50 µM (not active)
